Among the test systems are MCF7 breast; RXF 393 renal; U251 CNS; SF-295 CNS; UACC-257 melanoma; SR leukemia; UACC-62 melanoma; OVCAR-8 ovarian; ACHN renal; CCRF-CEM leukemia.
What all share (assay): growth of human tumour cells (NCI), 48 h

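Growth conditions: 96-well plates. Treatment: test compound, 48 hours, 5 concentrations. Analysis: linear interpolation between bracketing concentrations; unreached endpoints set to highest concentration. TGI is the concentration that stops growth completely.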

`COC(=O)C1(NC(=O)C(N)CC(=O)O)C(C)C1C` (stereo not given): the TGI in the assay with MCF7 breast, in the assay on RXF 393 renal, in the assay with U251 CNS, in the assay on SF-295 CNS, in the assay with UACC-257 melanoma and with SR leukemia was more than 100 µM each time. For the same compound, the TGI in the assay with UACC-62 melanoma, with OVCAR-8 ovarian, with ACHN renal and with CCRF-CEM leukemia was more than 100 µM each time.

Consider `O=C([C@H](O)[C@@H](O)c1ccc(Br)cc1)C12CC3CC(CC(C3)C1)C2`, for which the TGI in the assay on MCF7 breast is more than 39.7 µM; in the assay on RXF 393 renal it was more than 100 µM; in the assay on U251 CNS it was more than 36.4 µM; in the assay with SF-295 CNS it was 47.1 µM; in the assay on UACC-257 melanoma it was more than 43.3 µM; in the assay on SR leukemia, more than 100 µM. For the same compound, the TGI is 25.8 µM in the assay with UACC-62 melanoma, more than 100 µM with OVCAR-8 ovarian, more than 54.1 µM with ACHN renal and more than 30.8 µM in the assay with CCRF-CEM leukemia.

Consider `COc1ccc2[nH]c(C(=O)N3CC(CCl)c4ccc([N+](=O)[O-])cc43)cc2c1` (stereo not given), for which the TGI with MCF7 breast, in the assay on RXF 393 renal, with U251 CNS, with SF-295 CNS, in the assay on UACC-257 melanoma and with SR leukemia was more than 100 µM in each case. The TGI in the assay on UACC-62 melanoma, in the assay on OVCAR-8 ovarian, with ACHN renal and with CCRF-CEM leukemia was more than 100 µM each time.

The record behind these values is PubChem BioAssay (NCI).
